Results from patent US11040962B2, “Pesticidally active pyrazole derivatives” (SYNGENTA PARTICIPATIONS AG, priority 2017, dated 2021).

Assays:
Spodoptera littoralis = Spodoptera littoralis (Egyptian cotton leaf worm) cotton leaf disc spray test; type: in vivo; conditions: foliar, 72 h, application rate 200 ppm, L1 larvae, 3 days after infestation, vs untreated, read-out: control (at least one of mortality, anti-feedant effect, growth inhibition)
Description: Spodoptera littoralis (Egyptian Cotton Leaf Worm)
Cotton leaf discs were placed on agar in 24-well microtiter plates and sprayed with aqueous test solutions prepared from 10′000 ppm DMSO stock solutions. After drying the leaf discs were infested with five L1 larvae. The samples were assessed for mortality, anti-feedant effect, and growth inhibition in comparison to untreated samples 3 days after infestation. Control of Spodoptera littoralis by a test sample is when at least one of mortality, anti-feedant effect, and growth inhibition is higher than the untreated sample.

Tetranychus urticae = Tetranychus urticae (two-spotted spider mite) bean leaf disc spray test; type: in vivo; conditions: foliar, 192 h, application rate 200 ppm, 8 days after infestation, read-out: mortality on mixed population (mobile stages)
Description: Tetranychus urticae (Two-Spotted Spider Mite):
Bean leaf discs on agar in 24-well microtiter plates were sprayed with aqueous test solutions prepared from 10′000 ppm DMSO stock solutions. After drying the leaf discs were infested with a mite population of mixed ages. The samples were assessed for mortality on mixed population (mobile stages) 8 days after infestation.

Plutella xylostella = Plutella xylostella (diamond back moth) artificial diet test; type: in vivo; conditions: 120 h, application rate 200 ppm, L2 larvae, 5 days after infestation, vs untreated, read-out: effect in at least one of the two categories (mortality or growth inhibition)
Description: Plutella xylostella (Diamond Back Moth):
24-well microtiter plates with artificial diet were treated with aqueous test solutions prepared from 10′000 ppm DMSO stock solutions by pipetting. After drying, the plates were infested with L2 larvae (10 to 15 per well). The samples were assessed for mortality and growth inhibition in comparison to untreated samples 5 days after infestation. The following compounds gave an effect of at least 80% in at least one of the two categories (mortality or growth inhibition) at an application rate of 200 ppm: 1, 2, 3, 4, 7, 8, 9, 10, 11, 12, 13, 14, 15, 16, 17, 18, 19, 20, 21, 22, 23, 24, 26, 27, 28 and 29.

Euschistus heros = Euschistus heros (neotropical brown stink bug) soybean leaf spray test; type: in vivo; conditions: 120 h, application rate 200 ppm, N2 nymphs, 5 days after infestation, vs untreated, read-out: effect in at least one of the two categories (mortality or growth inhibition)
Description: Euschistus heros (Neotropical Brown Stink Bug)
Soybean leaves on agar in 24-well microtiter plates were sprayed with aqueous test solutions prepared from 10′000 ppm DMSO stock solutions. After drying the leaves were infested with N2 nymphs. The samples were assessed for mortality and growth inhibition in comparison to untreated samples 5 days after infestation. The following compounds gave an effect of at least 80% in at least one of the two categories (mortality or growth inhibition) at an application rate of 200 ppm: 1, 2, 3, 7, 8, 9, 12, 13, 14, 15, 17, 18, 21, 25, 26, 27, 28 and 29.

Diabrotica balteata = Diabrotica balteata (corn root worm) maize sprout spray test; type: in vivo; conditions: 96 h, application rate 200 ppm, L2 larvae, 4 days after infestation, vs untreated, read-out: effect in at least one of the two categories (mortality or growth inhibition)
Description: Diabrotica balteata, (Corn Root Worm)
Maize sprouts, placed on an agar layer in 24-well microtiter plates were treated with aqueous test solutions prepared from 10′000 ppm DMSO stock solutions by spraying. After drying, the plates were infested with L2 larvae (6 to 10 per well). The samples were assessed for mortality and growth inhibition in comparison to untreated samples 4 days after infestation. The following compounds gave an effect of at least 80% in at least one of the two categories (mortality or growth inhibition) at an application rate of 200 ppm: 1, 2, 3, 4, 7, 8, 9, 11, 12, 13, 14, 15, 16, 17, 18, 19, 20, 21, 27, 28 and 29.

Thrips tabaci = Thrips tabaci (onion thrips) sunflower leaf disc spray test; type: in vivo; conditions: foliar, 144 h, application rate 200 ppm, population of mixed ages, 6 days after infestation
Description: Thrips tabaci (Onion Thrips):
Sunflower leaf discs were placed on agar in 24-well microtiter plates and sprayed with aqueous test solutions prepared from 10′000 ppm DMSO stock solutions. After drying the leaf discs were infested with a Thrips population of mixed ages. The samples were assessed for mortality 6 days after infestation.

Row | melting point [°C] | Structure (SMILES) | percent control (mortality, anti-feedant effect or growth inhibition) at 200 ppm (Spodoptera littoralis) [%] | mortality at 200 ppm (Tetranychus urticae) [%] | percent effect (mortality or growth inhibition) at 200 ppm (Plutella xylostella) [%] | percent effect (mortality or growth inhibition) at 200 ppm (Euschistus heros) [%] | percent effect (mortality or growth inhibition) at 200 ppm (Diabrotica balteata) [%] | mortality at 200 ppm (Thrips tabaci) [%]
1 | – | Cn1nc(C(F)(F)C(F)(F)F)c(C(F)(F)F)c1-n1cc(-c2cc(C(=O)NC3CC3)c(C#N)s2)nn1 [Compound 1, 2-cyano-N-cyclopropyl-5-[1-[2-methyl-5-(1,1,2,2,2-pentafluoroethyl)-4-(trifluoromethyl)pyrazol-3-yl]triazol-4-yl]thiophene-3-carboxamide] | ≥ 80 | ≥ 80 | ≥ 80 | ≥ 80 | ≥ 80 | ≥ 80
2 | – | Cn1nc(C(F)(F)C(F)(F)F)c(C(F)(F)F)c1-c1csc(-c2cc(C(=O)NC3CC3)c(C#N)s2)c1 [Compound 27, 2-cyano-N-cyclopropyl-5-[4-[2-methyl-5-(1,1,2,2,2-pentafluoroethyl)-4-(trifluoromethyl)pyrazol-3-yl]-2-thienyl]thiophene-3-carboxamide] | ≥ 80 | ≥ 80 | ≥ 80 | ≥ 80 | ≥ 80 | ≥ 80
3 | – | CCN(C(=O)c1cc(-c2cc(-c3c(C(F)(F)F)c(C(F)(F)C(F)(F)F)nn3C)cs2)sc1C#N)C1CC1 [Compound 29, 2-cyano-N-cyclopropyl-N-ethyl-5-[4-[2-methyl-5-(1,1,2,2,2-pentafluoroethyl)-4-(trifluoromethyl)pyrazol-3-yl]-2-thienyl]thiophene-3-carboxamide] | ≥ 80 | ≥ 80 | ≥ 80 | ≥ 80 | ≥ 80 | ≥ 80
4 | 62 to 64 | CCN(C(=O)c1cc(-c2cn(-c3c(C(F)(F)F)c(C(F)(F)C(F)(F)F)nn3C)nn2)sc1C#N)C1(C#N)CC1 [Compound 6, 2-cyano-N-(1-cyanocyclopropyl)-N-ethyl-5-[1-[2-methyl-5-(1,1,2,2,2-pentafluoroethyl)-4-(trifluoromethyl)pyrazol-3-yl]triazol-4-yl]thiophene-3-carboxamide] | – | – | – | – | – | –
5 | – | Cn1nc(C(F)(F)C(F)(F)F)c(C(F)(F)F)c1-c1cc(-c2cc(C(=O)NC3CC3)c(C#N)s2)on1 [Compound 13, 2-cyano-N-cyclopropyl-5-[3-[2-methyl-5-(1,1,2,2,2-pentafluoroethyl)-4-(trifluoromethyl)pyrazol-3-yl]isoxazol-5-yl]thiophene-3-carboxamide] | ≥ 80 | ≥ 80 | ≥ 80 | ≥ 80 | ≥ 80 | ≥ 80
6 | – | CCN(C(=O)c1cc(-c2cc(-c3c(C(F)(F)F)c(C(F)(F)C(F)(F)F)nn3C)no2)sc1C#N)C1CC1 [Compound 15, 2-cyano-N-cyclopropyl-N-ethyl-5-[3-[2-methyl-5-(1,1,2,2,2-pentafluoroethyl)-4-(trifluoromethyl)pyrazol-3-yl]isoxazol-5-yl]thiophene-3-carboxamide] | ≥ 80 | ≥ 80 | ≥ 80 | ≥ 80 | ≥ 80 | ≥ 80
7 | – | CN(C(=O)c1cc(-c2cc(-c3c(C(F)(F)F)c(C(F)(F)C(F)(F)F)nn3C)no2)sc1C#N)C1CC1 [Compound 14, 2-cyano-N-cyclopropyl-N-methyl-5-[3-[2-methyl-5-(1,1,2,2,2-pentafluoroethyl)-4-(trifluoromethyl)pyrazol-3-yl]isoxazol-5-yl]thiophene-3-carboxamide] | ≥ 80 | ≥ 80 | ≥ 80 | ≥ 80 | ≥ 80 | ≥ 80
8 | – | CN(C(=O)c1cc(-c2cn(-c3c(C(F)(F)F)c(C(F)(F)C(F)(F)F)nn3C)nn2)sc1C#N)C1CC1 [Compound 2, 2-cyano-N-cyclopropyl-N-methyl-5-[1-[2-methyl-5-(1,1,2,2,2-pentafluoroethyl)-4-(trifluoromethyl)pyrazol-3-yl]triazol-4-yl]thiophene-3-carboxamide] | ≥ 80 | ≥ 80 | ≥ 80 | ≥ 80 | ≥ 80 | ≥ 80
9 | – | CN(C(=O)c1cc(-c2cc(-c3c(C(F)(F)F)c(C(F)(F)C(F)(F)F)nn3C)no2)sc1C#N)C1(C#N)CC1 [Compound 17, 2-cyano-N-(1-cyanocyclopropyl)-N-methyl-5-[3-[2-methyl-5-(1,1,2,2,2-pentafluoroethyl)-4-(trifluoromethyl)pyrazol-3-yl]isoxazol-5-yl]thiophene-3-carboxamide] | ≥ 80 | ≥ 80 | ≥ 80 | ≥ 80 | ≥ 80 | ≥ 80
10 | 185 to 187 | CN(C(=O)c1cc(-c2cn(-c3c(C(F)(F)F)c(C(F)(F)C(F)(F)F)nn3C)nn2)sc1C#N)C1(C#N)CC1 [Compound 5, 2-cyano-N-(1-cyanocyclopropyl)-N-methyl-5-[1-[2-methyl-5-(1,1,2,2,2-pentafluoroethyl)-4-(trifluoromethyl)pyrazol-3-yl]triazol-4-yl]thiophene-3-carboxamide] | – | – | – | – | – | –
11 | – | CCN(C(=O)c1cc(-c2cn(-c3c(C(F)(F)F)c(C(F)(F)C(F)(F)F)nn3C)nn2)sc1C#N)C1CC1 [Compound 3, 2-cyano-N-cyclopropyl-N-ethyl-5-[1-[2-methyl-5-(1,1,2,2,2-pentafluoroethyl)-4-(trifluoromethyl)pyrazol-3-yl]triazol-4-yl]thiophene-3-carboxamide] | ≥ 80 | ≥ 80 | ≥ 80 | ≥ 80 | ≥ 80 | ≥ 80
12 | – | Cn1nc(C(F)(F)C(F)(F)F)c(C(F)(F)F)c1-n1cc(-c2cc(C(=O)NC3CC3)c(Cl)s2)nn1 [Compound 7, 2-chloro-N-cyclopropyl-5-[1-[2-methyl-5-(1,1,2,2,2-pentafluoroethyl)-4-(trifluoromethyl)pyrazol-3-yl]triazol-4-yl]thiophene-3-carboxamide] | ≥ 80 | ≥ 80 | ≥ 80 | ≥ 80 | ≥ 80 | ≥ 80
